The nature of one data set: in vitro. It counts as cell-based. Summed up:
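COS-1 or CHO cells exposed to serial dilutions of test compound for 24 hours. Metabolic activity then read with resazurin (Alamar Blue): 2 hours incubation plus 30 minutes dark at room temperature, fluorescence ex 535/em 590 nm, treated versus control.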

A further data set deals with P. acnes ATCC 6919. The data set can be described thus: Antibacterial MIC, CLSI broth microdilution. The class given is cell-based. The note with it: Cutibacterium acnes, ATCC6919; 35° C., 18-24 hours. Summed up:
(§1)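 CLSI broth microdilution in cation-supplemented Mueller Hinton broth, inoculum 1×10^5 cfu from 0.5 McFarland cultures diluted 1:200. Incubated 35° C in ambient air for 18-24 hours. Growth read spectrophotometrically and checked manually; MIC (μg/mL) is the lowest compound dilution inhibiting growth.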
In general terms: In broth dilution the organism is exposed to a series of concentrations in liquid medium.

The next data set relates to P. acnes ATCC 11827. The experiment in a line: Antibacterial MIC, CLSI broth microdilution. The note with it: Cutibacterium acnes, ATCC11827; 35° C., 18-24 hours. The class given is cell-based. The method in brief: as §1
The subject of data set [1] is B. thetaiotaomicron ATCC 29741. The experiment in a line: Antibacterial MIC, CLSI broth microdilution. The class given is cell-based. The following applies: Bacteroides thetaiotaomicron.
Data set [2] relates to S. aureus RN450. The data set can be described thus: Antibacterial MIC, CLSI broth microdilution. It counts as cell-based. The following applies: Staphylococcus aureus, RN450; 35° C., 18-24 hours. The method in brief:
as §1

The next data set relates to E. coli MG 1655. The experiment in a line: Antibacterial MIC, CLSI broth microdilution. The class given is cell-based. The following applies: Escherichia coli, MG1655; 35° C., 18-24 hours. Summed up: as §1
For a further data set, the system named is E. coli ATCC 25922. The experiment in a line: Antibacterial MIC, CLSI broth microdilution. The note with it: Escherichia coli, ATCC25922; 35° C., 18-24 hours. It counts as cell-based. The method in brief:
as §1

Data set [3] has as its system S. pneumoniae 157E - Strep. The experiment in a line: Antibacterial MIC, CLSI broth microdilution. It counts as cell-based. The note with it: Streptococcus pneumoniae, 157ESTREP; 35° C., 18-24 hours; lysed horse blood. The method in brief: as §1
Data set [4] relates to carrageenan induced rat paw inflammation. The data set can be described thus: Rat carrageenan-induced paw edema inflammatory model. The class given is in vivo. The following applies: IP, various doses, FIG. 1. How it is done: The model used a sub-plantar injection of carrageenan in the rat to induce an inflammatory response. The test compound or saline (control) was administered IP 30 minutes before a subplantar injection of carrageenan (1.5 mg/0.1 mL). Paw volume was measured […] before subplantar injection and again 3 hours after the injection of carrageenan using a plethysmometer. Significant differences as determined by a Kruskal-Wallis One Way ANOVA are noted between the inflammation of the untreated controls versus treated animals […]
In general terms: In the carrageenan paw model, swelling and tenderness develop within hours.

Data set [5] concerns S. aureus RN450. The experiment in a line: In vivo anti-bacterial activity, S. aureus model. The note with it: mice, 24 hours; for responders at 5 mg/kg / ED50: Staphylococcus aureus, sc; for responders at 5 mg/kg: read-out: Percent Survival; for ED50: lethal IP S. aureus RN450, subcutaneous, read-out: PD50 (dose that protects 50% of the animals). How it is done: Groups of five mice were injected intraperitoneally with a lethal dose of S. aureus RN450 in a medium of mucin. Mice were evaluated at 24 hours to determine survival. […] In some instances, a dose response study was performed with the compound such that a PD50 (a dose of compound that protects 50% of the animals) could be calculated.

The nature of data set [6]: Half-life of oxidation, sodium periodate accelerated oxidation. The class given is physicochemical. How it is done: Not to be limited by theory, it is believed that the tissue staining may be caused oxidative instability. The tetracycline compounds were subjected to accelerated oxidation in a continuous-flow microreactor using a 15 molar excess of sodium periodate at pH 11 and 22° C. Aliquots of each reaction mixture were quenched at various time points with ascorbic acid and the disappearance of each compound was determined by RP-HPLC. Pseudo first-order rate constants and t1/2 values were obtained from the plots of log (Ao-At/Ao) versus time, where Ao is the HPLC area determined for each compound at time=0 and At is the HPLC area at time=t.

Where [7] appears, read: ATCC29741, 35° C., 18-24 hours, read-out: MIC B. thetaiotaomicron ATCC 29741.
The mark [8] stands for this setting: lethal IP S. aureus RN450, single subcutaneous dose 5 mg/kg.
[9] abbreviates: ATCC29741, read-out: MIC B. thetaiotaomicron ATCC 29741.

In brackets after ≈: the same amount, converted by molar mass. Like-named read-outs stand apart in the source and are kept apart here. A value given as a limit tells only on which side of the number the result lay.

Turning to `CCO/N=C(/C)c1ccc(O)c2c1C[C@H]1C[C@H]3[C@H](N(C)C)C(O)=C(C(N)=O)C(=O)[C@@]3(O)C(O)=C1C2=O` [A], the 50% inhibitory concentration (IC50) at 24 h in “in vitro” (African green monkey) and in the data set “in vitro” (Chinese hamster) was below 35 µg/mL each time. The minimum inhibitory concentration (MIC) (in general, the least concentration at which growth counts as inhibited) in the data set on P. acnes ATCC 6919 is below 4 µg/mL; with P. acnes ATCC 11827 it was below 4 µg/mL; in [1] (setting [7]), above 8 µg/mL; against S. aureus RN450 [2], below 4 µg/mL; in the data set on E. coli MG 1655, 4 to 8 µg/mL (≈ 8.01 to 16 µM); against E. coli ATCC 25922 it was below 4 µg/mL. In data set [3], the MIC is below 4 µg/mL. Also, the “modulation of carrageenan induced inflammation compared with doxycycline” value in data set [4] is reported as “improved activity”. Further, the responders at 5 mg/kg in the data set on S. aureus RN450 [5] (setting [8]) is 100%.

In the case of `CN(C)c1cc(C#N)c(O)c2c1C[C@H]1C[C@H]3[C@H](N(C)C)C(O)=C(C(N)=O)C(=O)[C@@]3(O)C(O)=C1C2=O` [B], the concentration for half-maximal inhibition (IC50) at 24 h in “in vitro” (African green monkey) and in “in vitro” (Chinese hamster) was below 35 µg/mL throughout. The MIC in the data set on P. acnes ATCC 6919 is below 4 µg/mL; against P. acnes ATCC 11827, below 4 µg/mL; in [1] (setting [7]), 4 to 8 µg/mL (≈ 8.29 to 16.6 µM); in the data set on S. aureus RN450 [2], below 4 µg/mL; against E. coli MG 1655 it was above 8 µg/mL; against E. coli ATCC 25922 it was above 8 µg/mL. In data set [3], this compound showed a minimum inhibitory concentration (MIC) below 4 µg/mL. In [6] (15 molar excess of sodium periodate, pH 11, 22° C., read-out: half-life for oxidation (converted)), the half-life (in general, the time in which the quantity being followed falls by half) was 8.25 min.

For `C[C@H]1c2cccc(O)c2C(=O)C2=C(O)[C@]3(O)C(=O)C(C(N)=O)=C(O)[C@@H](N(C)C)[C@@H]3[C@@H](O)[C@@H]21` [Doxycycline, reference compound], the IC50 at 24 h in the data set “in vitro” (African green monkey) and in the data set “in vitro” (Chinese hamster) was above 75 µg/mL each time. In addition, the minimum inhibitory concentration (MIC) in the data set on P. acnes ATCC 6919 was below 4 µg/mL; with P. acnes ATCC 11827, below 4 µg/mL; in data set [1] (setting [9]), 4 to 8 µg/mL (≈ 9 to 18 µM); with S. aureus RN450 [2], below 4 µg/mL; with E. coli MG 1655, below 4 µg/mL; in the data set with E. coli ATCC 25922 it was below 4 µg/mL. In [3], this compound displayed an MIC below 4 µg/mL. Also, the responders at 5 mg/kg in the data set with S. aureus RN450 [5] (setting [8]) was determined as 100%. In addition, the ED50 with S. aureus RN450 [5] came out at 0.13 mg/kg. In addition, the “Percent Survival” value in the data set with S. aureus RN450 [5] (lethal IP S. aureus RN450, single subcutaneous dose 5 mg/kg, 5 mg/kg) was 100 (5/5) Percent.

In the case of `CN(C)c1ccc(O)c2c1C[C@H]1C[C@H]3[C@H](N(C)C)C(O)=C(C(N)=O)C(=O)[C@@]3(O)C(O)=C1C2=O` [Minocycline, reference compound], the concentration for half-maximal inhibition (IC50) at 24 h in “in vitro” (African green monkey) and in the data set “in vitro” (Chinese hamster) was above 75 µg/mL throughout. Moreover, the MIC was below 4 µg/mL with P. acnes ATCC 6919; below 4 µg/mL in the data set with P. acnes ATCC 11827; 4 to 8 µg/mL (≈ 8.74 to 17.5 µM) in data set [1] (setting [9]); below 4 µg/mL with S. aureus RN450 [2]; below 4 µg/mL with E. coli MG 1655; below 4 µg/mL in the data set with E. coli ATCC 25922. For the same compound, in data set [3], the MIC was below 4 µg/mL. Also, the half-life in [6] (buffer, pH 11) is 0.137 min.

For `CON(C)Cc1ccc(O)c2c1C[C@H]1C[C@H]3[C@H](N(C)C)C(O)=C(C(N)=O)C(=O)[C@@]3(O)C(O)=C1C2=O` [P], the IC50 at 24 h in “in vitro” (African green monkey) and in the data set “in vitro” (Chinese hamster) was above 75 µg/mL each time. Besides, the minimal inhibitory concentration (MIC) against P. acnes ATCC 6919 is below 4 µg/mL; with P. acnes ATCC 11827 it was below 4 µg/mL; in data set [1] (setting [9]), 4 to 8 µg/mL (≈ 8.2 to 16.4 µM); in the data set with S. aureus RN450 [2], below 4 µg/mL; against E. coli MG 1655, 4 to 8 µg/mL (≈ 8.2 to 16.4 µM); in the data set on E. coli ATCC 25922, 4 to 8 µg/mL (≈ 8.2 to 16.4 µM). This compound also registered a minimal inhibitory concentration (MIC) in data set [3] below 4 µg/mL. In the data set with S. aureus RN450 [5] (setting [8]), the responders at 5 mg/kg turned out to be 100%. In addition, in the data set on S. aureus RN450 [5], the ED50 turned out to be 0.13 mg/kg.

With `C/C(=N\OC(C)(C)C)c1cc(N)c(O)c2c1C[C@H]1C[C@H]3[C@H](N(C)C)C(O)=C(C(N)=O)C(=O)[C@@]3(O)C(O)=C1C2=O` [Q, (4S,4aS,5aR,12aS)-9-Amino-7-(1-tert-butoxyimino-ethyl)-4-dimethylamino-3,10,12,12a-tetrahydroxy-1,11-dioxo-1,4,4a,5,5a,6,11,12a-octahydro-naphthacene-2-carboxylic acid amide], the half-maximal inhibitory concentration (IC50) at 24 h in “in vitro” (African green monkey) and in the data set “in vitro” (Chinese hamster) was below 35 µg/mL throughout. Further, the MIC is below 4 µg/mL in the data set with P. acnes ATCC 6919; below 4 µg/mL with P. acnes ATCC 11827; 4 to 8 µg/mL (≈ 7.37 to 14.7 µM) in data set [1] (setting [7]); below 4 µg/mL in the data set on S. aureus RN450 [2]; 4 to 8 µg/mL (≈ 7.37 to 14.7 µM) in the data set with E. coli MG 1655; 4 to 8 µg/mL (≈ 7.37 to 14.7 µM) in the data set with E. coli ATCC 25922. Moreover, the minimal inhibitory concentration (MIC) in data set [3] is below 4 µg/mL. In addition, the responders at 5 mg/kg in the data set with S. aureus RN450 [5] (setting [8]) is 100%. Further, in the data set on S. aureus RN450 [5], the ED50 was determined as 0.45 mg/kg.

As to `CO/N=C/c1cc(N(C)C)c2c(c1O)C(=O)C1=C(O)[C@]3(O)C(=O)C(C(N)=O)=C(O)[C@@H](N(C)C)[C@@H]3C[C@@H]1C2` [V, (4S,4aS,5aR,12aS)-4,7-Bis-dimethylamino-3,10,12,12a-tetrahydroxy-9-(methoxyimino-methyl)-1,11-dioxo-1,4,4a,5,5a,6,11,12a-octahydro-naphthacene-2-carboxylic acid amide], the 50% inhibitory concentration (IC50) at 24 h in “in vitro” (African green monkey) and in the data set “in vitro” (Chinese hamster) was below 35 µg/mL in each case. Also, the MIC against P. acnes ATCC 6919 is below 4 µg/mL; with P. acnes ATCC 11827, below 4 µg/mL; in data set [1] (setting [7]) it was 4 to 8 µg/mL (≈ 7.77 to 15.5 µM); in the data set with S. aureus RN450 [2], below 4 µg/mL; with E. coli MG 1655, above 8 µg/mL; in the data set on E. coli ATCC 25922 it was above 8 µg/mL. Also, in data set [3], the minimal inhibitory concentration (MIC) is below 4 µg/mL. Besides, the ED50 in the data set with S. aureus RN450 [5] came out at 1.4 mg/kg.

These data come from patent US9012433B2, “Substituted tetracycline compounds” (Paratek Pharmaceuticals, Inc., priority 2006, dated 2015).
